{"source": "ChEMBL document CHEMBL1201862", "about": "“PubChem BioAssay data set” (2004)", "key": {"[1]": {"target": "Genome polyprotein (dengue virus type 2, UniProt P29990)", "sequence (P29990 2492-3391 limits assumed)": "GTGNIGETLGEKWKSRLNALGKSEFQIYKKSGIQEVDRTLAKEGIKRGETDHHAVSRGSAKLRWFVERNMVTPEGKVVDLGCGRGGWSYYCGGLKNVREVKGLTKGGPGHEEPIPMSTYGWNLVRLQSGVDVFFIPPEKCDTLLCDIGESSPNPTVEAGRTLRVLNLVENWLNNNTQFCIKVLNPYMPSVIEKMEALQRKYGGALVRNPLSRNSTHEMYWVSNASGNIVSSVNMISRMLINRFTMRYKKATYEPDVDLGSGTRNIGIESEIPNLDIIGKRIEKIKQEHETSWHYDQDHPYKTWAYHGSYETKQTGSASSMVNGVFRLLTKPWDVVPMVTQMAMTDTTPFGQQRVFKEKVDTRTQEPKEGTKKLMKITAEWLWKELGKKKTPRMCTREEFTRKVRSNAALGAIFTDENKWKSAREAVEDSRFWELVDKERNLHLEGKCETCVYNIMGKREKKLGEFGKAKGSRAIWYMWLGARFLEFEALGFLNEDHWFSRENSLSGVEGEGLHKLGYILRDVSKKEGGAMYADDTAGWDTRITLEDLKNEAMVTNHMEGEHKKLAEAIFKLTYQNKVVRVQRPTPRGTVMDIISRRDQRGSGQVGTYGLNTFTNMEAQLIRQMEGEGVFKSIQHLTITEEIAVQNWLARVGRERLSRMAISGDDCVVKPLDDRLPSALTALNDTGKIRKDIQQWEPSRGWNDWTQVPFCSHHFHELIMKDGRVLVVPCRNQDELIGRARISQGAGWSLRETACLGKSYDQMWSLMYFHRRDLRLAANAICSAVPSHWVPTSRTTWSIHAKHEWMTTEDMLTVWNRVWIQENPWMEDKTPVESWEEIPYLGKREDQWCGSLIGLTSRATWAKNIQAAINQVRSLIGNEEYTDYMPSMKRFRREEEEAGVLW", "assay": "Dengue-2 NS5 methyltransferase inhibitors, primary screen, biochemical, confirmation dose response (AID 588689)", "type": "functional"}, "[2]": {"target": "Histone-lysine N-methyltransferase NSD2 (Homo sapiens, UniProt O96028)", "sequence (O96028 whole entry)": "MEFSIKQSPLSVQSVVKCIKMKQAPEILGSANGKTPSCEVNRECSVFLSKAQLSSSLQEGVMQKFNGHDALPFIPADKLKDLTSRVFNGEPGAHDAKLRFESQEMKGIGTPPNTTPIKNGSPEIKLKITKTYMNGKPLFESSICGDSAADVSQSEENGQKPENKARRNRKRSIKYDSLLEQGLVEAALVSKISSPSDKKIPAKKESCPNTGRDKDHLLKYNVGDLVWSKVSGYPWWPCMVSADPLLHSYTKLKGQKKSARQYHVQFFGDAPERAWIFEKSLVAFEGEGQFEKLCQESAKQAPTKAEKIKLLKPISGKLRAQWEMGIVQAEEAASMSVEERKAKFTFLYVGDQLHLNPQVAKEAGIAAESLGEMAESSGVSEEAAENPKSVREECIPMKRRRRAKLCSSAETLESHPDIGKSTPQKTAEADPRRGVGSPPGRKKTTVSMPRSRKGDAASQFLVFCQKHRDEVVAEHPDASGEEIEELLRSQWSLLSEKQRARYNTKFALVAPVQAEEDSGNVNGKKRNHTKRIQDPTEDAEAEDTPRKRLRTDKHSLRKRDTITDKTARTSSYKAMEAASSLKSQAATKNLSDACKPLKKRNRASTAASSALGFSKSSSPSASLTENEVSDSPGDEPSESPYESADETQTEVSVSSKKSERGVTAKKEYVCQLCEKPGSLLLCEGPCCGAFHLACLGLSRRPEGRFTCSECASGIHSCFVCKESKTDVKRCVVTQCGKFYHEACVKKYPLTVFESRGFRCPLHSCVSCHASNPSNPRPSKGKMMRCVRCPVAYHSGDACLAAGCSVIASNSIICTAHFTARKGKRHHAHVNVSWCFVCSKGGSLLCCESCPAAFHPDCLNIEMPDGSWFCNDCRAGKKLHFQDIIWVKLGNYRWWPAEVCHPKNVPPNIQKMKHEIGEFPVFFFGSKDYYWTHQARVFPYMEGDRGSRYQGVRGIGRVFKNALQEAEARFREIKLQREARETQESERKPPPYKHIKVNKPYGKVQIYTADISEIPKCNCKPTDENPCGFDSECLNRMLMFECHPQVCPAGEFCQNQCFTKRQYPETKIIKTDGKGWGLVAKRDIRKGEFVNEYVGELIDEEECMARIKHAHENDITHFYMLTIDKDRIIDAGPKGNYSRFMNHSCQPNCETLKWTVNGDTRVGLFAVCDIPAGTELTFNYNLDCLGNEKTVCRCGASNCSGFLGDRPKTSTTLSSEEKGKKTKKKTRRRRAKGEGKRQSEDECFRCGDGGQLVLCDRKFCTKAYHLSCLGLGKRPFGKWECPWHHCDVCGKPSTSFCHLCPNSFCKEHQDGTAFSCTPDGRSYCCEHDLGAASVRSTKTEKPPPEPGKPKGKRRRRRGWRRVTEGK", "type": "biochemical"}, "[3]": {"target": "T1, Heat shock factor protein 1 (Mus musculus, UniProt P38532)", "T1 sequence (P38532 whole entry)": "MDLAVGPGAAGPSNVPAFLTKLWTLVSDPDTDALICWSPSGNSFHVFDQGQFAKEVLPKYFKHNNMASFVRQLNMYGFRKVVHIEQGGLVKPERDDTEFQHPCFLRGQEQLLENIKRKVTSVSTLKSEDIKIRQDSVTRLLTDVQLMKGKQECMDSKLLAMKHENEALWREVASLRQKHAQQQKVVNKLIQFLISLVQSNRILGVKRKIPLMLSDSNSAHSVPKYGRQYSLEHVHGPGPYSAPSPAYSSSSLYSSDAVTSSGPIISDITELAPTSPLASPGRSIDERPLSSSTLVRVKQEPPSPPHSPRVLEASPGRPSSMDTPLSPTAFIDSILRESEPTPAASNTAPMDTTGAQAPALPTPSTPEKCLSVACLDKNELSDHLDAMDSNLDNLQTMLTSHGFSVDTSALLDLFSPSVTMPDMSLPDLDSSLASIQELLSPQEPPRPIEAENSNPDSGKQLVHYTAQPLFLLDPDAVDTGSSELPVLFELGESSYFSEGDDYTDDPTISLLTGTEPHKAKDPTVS", "assay": "HSF1 potentiators in luciferase reporter cells, confirmation, cell-based, NIH3T3, luminescence, dose retest (AID 435004);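 also: stress induced by proteasome inhibitor MG132 added 30 min after compound; actives raise luminescence as potentiators of the MG132 stress response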", "type": "functional"}, "[4]": {"assay": "LGR2 antagonists, dose response, cell-based, HEK293, CRE-luciferase reporter, cherry pick, set 2 (AID 743343);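 also: transfected cells were stimulated with diluted bursicon conditioned medium after compound addition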", "type": "functional"}, "[5]": {"assay": "A549 cell cytotoxicity, dose response, cytotoxicity control, plate reader, cherry-pick, antagonist series (AID 743412)", "type": "functional, cell-based"}, "[6]": {"assay": "HepG2 cell cytotoxicity, dose response, cytotoxicity control, plate reader, cherry-pick, antagonist series (AID 743416)", "type": "functional, cell-based"}, "[7]": {"assay": "MC4R antagonists, dose response, counter-screen for LGR2 antagonist project, cell-based, plate reader, cherry pick (AID 743444);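 also: transfected HEK 293 cells stimulated with alpha-MSH peptide; potency of inhibitors of the alpha-MSH evoked signal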", "type": "functional"}, "[8]": {"assay": "HEK293 cell cytotoxicity, dose response, cytotoxicity control, plate reader, cherry-picked samples (AID 743446)", "type": "functional, cell-based"}, "[9]": {"target": "Kallikrein-7 (Homo sapiens, UniProt P49862)", "sequence (P49862 whole entry)": "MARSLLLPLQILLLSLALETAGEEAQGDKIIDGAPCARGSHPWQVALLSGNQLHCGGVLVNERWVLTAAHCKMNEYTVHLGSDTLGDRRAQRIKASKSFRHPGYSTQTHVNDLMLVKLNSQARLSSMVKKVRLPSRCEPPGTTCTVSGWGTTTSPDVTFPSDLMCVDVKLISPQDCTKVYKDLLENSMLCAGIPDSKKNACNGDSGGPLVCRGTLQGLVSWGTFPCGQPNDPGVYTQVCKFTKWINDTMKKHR", "assay": "Fluorescence Intensity-based biochemical primary high throughput dose response assay to identify activators of kallikrein-7 (K7) zymogen."}, "[10]": {"assay": "NIH:OVCAR-3 ovarian cancer cell cytotoxicity, dose response, PAX8 inhibitor project, plate reader, dry powder samples (AID 743044)", "type": "functional, cell-based"}, "[11]": {"assay": "cytotoxicity in OVCAR8 ovarian cancer cells, dose response, PAX8 project, cell-based, plate reader, dry powder samples (AID 743197)", "type": "functional", "conditions": "OVCAR-8"}, "[12]": {"assay": "non-specific cell cytotoxicity, dose response, cytotoxicity control for PAX8 inhibitor project, plate reader, dry powder samples (AID 743021)", "type": "functional, cell-based"}, "[13]": {"target": "Paired box protein Pax-8 (Homo sapiens, UniProt Q06710)", "sequence (Q06710 whole entry)": "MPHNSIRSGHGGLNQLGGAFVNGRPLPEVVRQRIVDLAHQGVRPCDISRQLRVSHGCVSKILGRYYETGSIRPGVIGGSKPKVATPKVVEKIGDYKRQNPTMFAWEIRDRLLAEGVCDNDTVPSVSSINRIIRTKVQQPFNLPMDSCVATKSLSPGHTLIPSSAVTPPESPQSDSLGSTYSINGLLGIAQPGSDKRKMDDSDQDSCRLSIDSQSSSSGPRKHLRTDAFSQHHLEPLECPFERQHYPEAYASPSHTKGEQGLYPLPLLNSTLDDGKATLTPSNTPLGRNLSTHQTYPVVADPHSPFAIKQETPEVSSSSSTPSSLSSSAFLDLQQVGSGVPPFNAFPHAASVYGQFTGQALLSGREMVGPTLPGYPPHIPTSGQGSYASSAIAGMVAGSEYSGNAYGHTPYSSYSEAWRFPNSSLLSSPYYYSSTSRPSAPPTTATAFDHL", "assay": "inhibitors of PAX8-driven TPO luciferase reporter, dose response, RMG-I cells, cherry-pick (AID 687027);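 also: luciferase reporter driven by Pax8 target thyroperoxidase promoter measured by SteadyGlo luminescence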", "type": "functional, cell-based"}, "[14]": {"target": "Endoplasmic reticulum aminopeptidase 1 (Homo sapiens, UniProt Q9NZ08)", "sequence (Q9NZ08 whole entry)": "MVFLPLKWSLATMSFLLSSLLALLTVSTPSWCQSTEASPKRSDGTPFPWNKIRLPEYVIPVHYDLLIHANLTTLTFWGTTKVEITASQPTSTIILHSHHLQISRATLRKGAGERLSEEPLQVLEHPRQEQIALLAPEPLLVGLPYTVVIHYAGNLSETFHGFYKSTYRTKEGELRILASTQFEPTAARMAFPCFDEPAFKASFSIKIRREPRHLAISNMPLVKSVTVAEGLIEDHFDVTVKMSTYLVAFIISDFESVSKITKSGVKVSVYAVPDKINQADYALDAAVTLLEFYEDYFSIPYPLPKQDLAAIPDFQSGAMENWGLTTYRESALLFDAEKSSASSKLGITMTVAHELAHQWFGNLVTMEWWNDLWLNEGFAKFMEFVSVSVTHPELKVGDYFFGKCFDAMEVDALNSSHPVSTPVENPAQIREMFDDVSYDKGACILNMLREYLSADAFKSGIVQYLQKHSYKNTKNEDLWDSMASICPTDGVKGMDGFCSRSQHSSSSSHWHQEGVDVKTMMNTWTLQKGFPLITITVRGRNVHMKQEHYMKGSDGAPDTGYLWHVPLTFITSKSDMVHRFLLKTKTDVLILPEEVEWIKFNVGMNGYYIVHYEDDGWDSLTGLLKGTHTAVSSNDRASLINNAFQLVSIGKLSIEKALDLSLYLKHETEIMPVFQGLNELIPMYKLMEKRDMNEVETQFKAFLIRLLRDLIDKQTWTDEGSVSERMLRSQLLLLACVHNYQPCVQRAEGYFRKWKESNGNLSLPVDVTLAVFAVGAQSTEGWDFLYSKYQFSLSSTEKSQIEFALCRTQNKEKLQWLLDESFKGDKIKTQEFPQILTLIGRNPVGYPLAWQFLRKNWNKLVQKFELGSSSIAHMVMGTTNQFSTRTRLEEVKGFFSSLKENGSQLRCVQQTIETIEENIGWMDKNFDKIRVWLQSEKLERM", "assay": "ERAP1 aminopeptidase inhibitors, dose response, biochemical, cherry-pick, set 2, plate reader (AID 743314)"}, "[15]": {"assay": "HepG2 cell cytotoxicity, dose response, cytotoxicity control, plate reader, dry powder samples (AID 1159569);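 also: inhibitor potency with signal falling toward the positive control level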", "type": "functional, cell-based"}, "[16]": {"assay": "P. falciparum Dd2 growth inhibitors, dose response, SYBR Green, dry powder samples (AID 1159566);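 also: potency for growth inhibition with lower SYBR green DNA signal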", "type": "functional, cell-based"}, "[17]": {"assay": "P. falciparum ATP4 D1247Y mutant growth inhibitors, dose response, NITD609-resistant line, SYBR Green, dry powder (AID 1159571);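 also: parasites synchronized at ring stage by sorbitol before testing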", "type": "functional, cell-based"}, "[18]": {"assay": "P. falciparum Dd2 growth inhibitors, dose response, SYBR Green, cherry-picked samples (AID 1159567)", "type": "functional, cell-based"}, "[19]": {"assay": "P. falciparum 3D7-ScDHODH growth inhibitors, dose response, SYBR Green, dry powder samples (AID 1159570);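 also: parasite growth measured after 72 hours of compound exposure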", "type": "functional, cell-based"}, "[20]": {"assay": "HeLa 4N DNA content increase, dose response, cell-based, IC50 (AID 1117351)", "type": "functional"}, "[21]": {"assay": "HeLa 2N DNA content increase, dose response, cell-based, IC50 (AID 1117349)", "type": "functional"}, "[22]": {"assay": "cytotoxicity toward HT-29 cells – cell-based, CellTiter-Glo luminescence, IC50, dose response (AID 1117330)", "type": "functional"}, "[23]": {"assay": "cytotoxicity toward HCT116 cells – cell-based, CellTiter-Glo luminescence, IC50, dose response (AID 1117332)", "type": "functional", "conditions": "HCT-116"}, "[24]": {"assay": "CellTiter-Glo luminescent dose response of DLD-1 viability loss (AID 1117352)", "type": "functional"}, "[25]": {"assay": "RKO cell viability reduction, dose response, CellTiter-Glo luminescence (AID 1117322)", "type": "functional"}, "[26]": {"assay": "Concentration-dependent survival of SW480 colon cancer line, luminescence detection with CellTiter-Glo, half-maximal inhibitory concentration (AID 1117338)", "type": "functional"}, "[27]": {"assay": "cytotoxicity toward Colo320 cells – cell-based, CellTiter-Glo luminescence, IC50, dose response (AID 1117334)", "type": "functional", "conditions": "COLO 320"}, "[28]": {"assay": "SNU-C1 cell viability reduction, dose response, CellTiter-Glo luminescence (AID 1117323)", "type": "functional, cell-based"}, "[29]": {"assay": "Dose-response inhibition of insulin secretion in a rat insulinoma line at 5 mM glucose (AID 1117331)", "type": "functional, cell-based", "conditions": "INS-1E"}}, "note": "Calls of active or inactive are those of the source."}
{"smiles": "O=C(O)CN1C(=O)/C(=C\\c2cc(Br)ccc2OCc2ccc(F)cc2)SC1=S", "values": [{"measurement": "IC50", "setting": "[1]", "result": "31.4 µM (active)"}, {"measurement": "AC50", "setting": "[2]", "result": "18.5 µM (active)"}, {"measurement": "EC50", "setting": "[3]", "result": "> 260 µM (inactive)"}]}
{"smiles": "COc1cc(OC)nc(Nc2nc(C(N)Cc3ccc(C(F)(F)F)cc3)cs2)n1", "note": "(stereo not given)", "values": [{"measurement": "AC50", "setting": "[4]", "result": "18.9 µM (active)"}, {"measurement": "AC50", "setting": "[5]", "result": "7.58 µM (active)"}, {"measurement": "AC50", "setting": "[6]", "result": "7.18 µM (active)"}, {"measurement": "AC50", "setting": "[7]", "result": "24.8 µM (active)"}, {"measurement": "AC50", "setting": "[8]", "result": "15.7 µM (active)"}]}
{"smiles": "Cc1cccc(/C=N/c2ccccc2C(N)=O)c1", "values": [{"measurement": "EC50", "setting": "[9]", "result": "> 69.5 µM (inactive)"}]}
{"smiles": "CN(C)CC(=O)N1CCCCN2[C@H](CO)[C@H](c3ccc(/C=C/c4ccccc4)cc3)[C@H]2C1", "values": [{"measurement": "AC50", "setting": "[10]", "result": "47.6 µM (active)"}, {"measurement": "AC50", "setting": "[11]", "result": "69.1 µM (active)"}, {"measurement": "AC50", "setting": "[12]", "result": "42.9 µM (active)"}, {"measurement": "AC50", "setting": "[13]", "result": "9.31 µM (active)"}]}
{"smiles": "COCC(=O)N1[C@@H]2c3ccc(/C=C/c4ccccc4)c(=O)n3C[C@H]1[C@H](CO)[C@H]2C(=O)N1CCOCC1", "values": [{"measurement": "AC50", "setting": "[14]", "result": "4.85 µM (active)"}]}
{"smiles": "C/C(=N\\NC(=O)CC#N)c1cc2ccc(O)cc2oc1=O", "values": [{"measurement": "AC50", "setting": "[14]", "result": "6.38 µM (active)"}]}
{"smiles": "C[C@H]1CN([C@@H](C)CO)C(=O)c2c(c3ccccc3n2C)-c2ccccc2CO[C@H]1CN(C)C(=O)Nc1cccc(Cl)c1Cl", "values": [{"measurement": "AC50", "setting": "[15]", "result": "18.7 µM (active)"}, {"measurement": "AC50", "setting": "[16]", "result": "0.785 µM (active)"}, {"measurement": "AC50", "setting": "[17]", "result": "0.897 µM (active)"}, {"measurement": "AC50", "setting": "[18]", "result": "3.09 µM (active)"}, {"measurement": "AC50", "setting": "[19]", "result": "1.77 µM (active)"}]}
{"smiles": "O=S(=O)(c1ccc(F)cc1)N1CCCCN2[C@@H](CO)[C@@H](c3ccc(C4=CCCCC4)cc3)[C@@H]2C1", "values": [{"measurement": "AC50", "setting": "[15]", "result": "12.8 µM (active)"}, {"measurement": "AC50", "setting": "[16]", "result": "1.07 µM (active)"}, {"measurement": "AC50", "setting": "[17]", "result": "0.915 µM (active)"}, {"measurement": "AC50", "setting": "[18]", "result": "1.69 µM (active)"}, {"measurement": "AC50", "setting": "[19]", "result": "1.15 µM (active)"}]}
{"smiles": "C1CN(P2(N3CC3)=NP(N3CC3)(N3CC3)=NP(N3CC3)(N3CC3)=N2)CCO1", "note": "(stereo not given) [FOTRETAMINE]", "values": [{"measurement": "IC50", "setting": "[20]", "result": "> 10 µM (inactive)"}, {"measurement": "IC50", "setting": "[21]", "result": "> 10 µM (inactive)"}]}
{"smiles": "Cc1onc(-c2ccccc2)c1-c1ccc(S(N)(=O)=O)cc1", "note": "[VALDECOXIB]", "values": [{"measurement": "IC50", "setting": "[22]", "result": "> 20 µM (inactive)"}, {"measurement": "IC50", "setting": "[23]", "result": "> 20 µM (inactive)"}, {"measurement": "IC50", "setting": "[24]", "result": "> 20 µM (inactive)"}, {"measurement": "IC50", "setting": "[25]", "result": "> 20 µM (inactive)"}, {"measurement": "IC50", "setting": "[26]", "result": "> 20 µM (inactive)"}, {"measurement": "IC50", "setting": "[27]", "result": "> 20 µM (inactive)"}, {"measurement": "IC50", "setting": "[28]", "result": "> 20 µM (inactive)"}]}
{"smiles": "CCCC(CCC)C(=O)O", "note": "[VALPROIC ACID]", "values": [{"measurement": "IC50", "setting": "[29]", "result": "> 33.3 µM (inactive)"}]}
